Source: patent US12162913B2 (priority 2016, dated 2024)
“Also recorded” adds a separate entry of the source. Like-named read-outs stand apart in the source and are kept apart here.

Key:
[1] = target: R. microplus nAChRα6 (Rma6) homopentamers (Rhipicephalus microplus, UniProt A0A223PM23); test: Two-electrode voltage clamp on Xenopus oocytes expressing Rmα6 homopentamers; type: cell-based
Method: (§1) The plasmids containing the sequences of choice were linearized using BeuI (Spel) FastDigest (ThermoFisher) restriction enzyme for 30 min at 37°, and an aliquot run on an agarose gel to check for complete linearization. The plasmid DNA was phenol:chloroform purified and ethanol precipitated. The pellet was re-suspended in deionized water. Capped RNA was synthesized using mMessage mMachine T7 kit from 1 μg linearized plasmid DNA, the sample phenol:chloroform purified and isopropanol precipitated. The pellet was re-suspended in deionized water to a concentration of 500 ng/μl, analysed on an agarose gel for integrity and stored at −80° C. until further use.
(§2) Xenopus laevis oocytes were purchased as whole ovaries from the European Xenopus Resource Centre (University of Portsmouth), delivered in less than 24 h in Modified Barth's Saline (MBS) on wet ice. Upon arrival, the oocytes were treated with 2 mg/ml collagenase type I (Sigma-Aldrich) in calcium-free Barth's solution (NaCl 88 mM, Tris-HCl 15 mM, NaHCO32.4 mM, MgCl2 0.82 mM, KCl 1 mM, pH 7.5) for 30 min at room temperature. The separated oocytes were rinsed thoroughly in calcium-free Barth's solution, manually de-folliculated and injected using a Drummond microinjector with 25 ng/oocyte capped RNA. The oocytes were incubated at 18° C. in calcium-containing ([…]) Barth's solution supplemented with 4 μg/ml Kanamycin, 50 μg/ml Tetracycline, 100 U/ml Penicillin and 100 μg/ml Streptomycin. Two-electrode voltage clamp recordings were performed after 3-5 days using an OC-725C oocyte clamp (Warner instruments) with the membrane potential clamped at −60 mV. The oocytes were continuously perfused with frog Ringer's solution (NaCl 115 mM, KCl 2.5 mM, CaCl2) 1.8 mM and HEPES 10 mM) and the dilutions of ligands prepared in Ringer's saline applied using a VC-8 multi-valve perfusion system (Warner Instruments). Following ligand application, the current required to maintain the membrane potential at −60 mV was measured and used for subsequent data analysis.
(§3) Two-electrode voltage clamp electrophysiology data acquisition was done using LabScribe software (iWorks Systems) and the data transferred to GraphPad Prism (GraphPad Software) for traces analysis and dose-response curve fitting.

[2] = target: R. microplus nAChRα5 (Rmα5) homopentamers (Rhipicephalus microplus, UniProt A0A223PM17, I539V); type: cell-based
Method: as §1, §2, §3

Sequence of R. microplus nAChRα6 (Rma6) homopentamers (A0A223PM23 entry or part of it): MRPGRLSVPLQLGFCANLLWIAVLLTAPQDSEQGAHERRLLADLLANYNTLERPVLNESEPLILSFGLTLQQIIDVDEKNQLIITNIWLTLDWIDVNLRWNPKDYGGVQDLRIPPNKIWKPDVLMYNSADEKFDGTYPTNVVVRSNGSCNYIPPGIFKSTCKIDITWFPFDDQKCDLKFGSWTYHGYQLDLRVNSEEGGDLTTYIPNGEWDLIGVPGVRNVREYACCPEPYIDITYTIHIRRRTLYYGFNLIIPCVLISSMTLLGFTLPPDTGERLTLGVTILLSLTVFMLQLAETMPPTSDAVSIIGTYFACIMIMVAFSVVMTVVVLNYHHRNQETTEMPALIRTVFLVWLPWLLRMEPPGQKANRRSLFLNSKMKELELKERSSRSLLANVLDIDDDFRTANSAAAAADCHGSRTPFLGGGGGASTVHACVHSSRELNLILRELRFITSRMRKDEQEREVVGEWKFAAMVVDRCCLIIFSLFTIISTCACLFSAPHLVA
Sequence of R. microplus nAChRα5 (Rmα5) homopentamers (A0A223PM17 entry or part of it I539V): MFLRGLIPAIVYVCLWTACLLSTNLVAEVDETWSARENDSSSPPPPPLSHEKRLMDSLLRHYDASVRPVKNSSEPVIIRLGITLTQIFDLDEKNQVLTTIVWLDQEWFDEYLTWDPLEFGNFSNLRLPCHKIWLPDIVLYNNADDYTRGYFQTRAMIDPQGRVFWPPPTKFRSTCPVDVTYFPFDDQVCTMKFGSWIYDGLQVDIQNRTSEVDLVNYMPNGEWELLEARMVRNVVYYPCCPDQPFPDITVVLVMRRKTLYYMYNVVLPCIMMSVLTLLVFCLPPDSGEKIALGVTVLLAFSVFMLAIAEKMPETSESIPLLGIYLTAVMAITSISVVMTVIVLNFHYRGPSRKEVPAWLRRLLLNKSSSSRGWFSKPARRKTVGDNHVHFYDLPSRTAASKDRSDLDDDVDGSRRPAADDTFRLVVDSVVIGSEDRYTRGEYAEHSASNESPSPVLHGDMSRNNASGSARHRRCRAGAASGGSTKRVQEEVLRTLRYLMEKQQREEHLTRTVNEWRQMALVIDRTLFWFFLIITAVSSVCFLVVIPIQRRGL

Molecule	EC50 ([1]; membrane potential clamped at −60 mV, dose-response curve, read-out: EC50 (activation of Rma6 receptor)) [nM]	action on Rma6 receptor [1]	character of responses on Rma6 [1]	action on Rma6 receptor ([1]; listed as imidacloprid)	EC50 of spinosad lower than ACh EC50 (fold) ([2]; Rmα5 receptor)	action on Rmα5 receptor ([2]; Xenopus oocytes)	character of responses on Rmα5 ([2]; Xenopus oocytes, ACh 300 μM, spinosad 30 μM representative traces)	time to response plateau ([2]; during application)	time to first signs of depolarization ([2]; during perfusion)
CC(=O)OCC[N+](C)(C)C [ACh, acetylcholine]	1970 ± 1200								
O=[N+]([O-])NC1=NCCN1Cc1ccc(Cl)nc1 [Imidacloprid, imidacloprid]		partial agonist	small, non-desensitizing responses	induced responses					
spinosad		does not directly activate; also recorded: type II allosteric modulator			over 10 times	higher efficacy than ACh; also recorded: agonist	large and also non-desensitizing	around 30 s	about 15 s
